{"source": "patent US8598348B2", "about": "“Purification of 1-[2-(2,4-dimethylphenylsulfanyl)phenyl]piperazine” (H. Lundbeck A/S, priority 2009, dated 2013)", "key": {"[1]": {"settings": "judged from DSC and solubility data; as shown in WO 2007/144005; cited from earlier work"}, "[2]": {"assay": "Water absorption when exposed to high relative humidity", "format": "physicochemical"}, "Solubility in water": {"assay": "Solubility in water", "format": "physicochemical"}}, "note": "Structures can show the parent of a compound that is named as a salt."}
{"smiles": "Cc1ccc(Sc2ccccc2N2CCNCC2)c(C)c1", "note": "[beta form of the hydrobromide, 1-[2-(2,4-dimethylphenylsulfanyl)phenyl]piperazine-HBr]", "values": [{"measurement": "stability among the α-, β- and γ-forms of the HBr salt", "setting": "[1]", "result": "most stable form"}, {"measurement": "absorption of water when exposed to high relative humidity", "setting": "[2]", "result": "about 0.6%"}, {"measurement": "solubility", "setting": "Solubility in water", "result": 1200, "unit": "µg/mL"}]}
